Experimental data: PubChem BioAssay (NCI)
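The compound was tested at five concentrations on cells cultured in 96-well plates, with a 48-hour exposure period. TGI: concentration producing complete growth inhibition.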

Experiments:
Experiment in all cases: DTP human tumour cell line panel, 48 h
786-0 renal = tested on: 786-0 renal
UO-31 renal = tested on: UO-31 renal
BT-549 breast = tested on: BT-549 breast
TK-10 renal = tested on: TK-10 renal
NCI/ADR-RES ovarian = tested on: NCI/ADR-RES ovarian
CCRF-CEM leukemia = tested on: CCRF-CEM leukemia
U251 CNS = tested on: U251 CNS
COLO 205 colon = tested on: COLO 205 colon
MOLT-4 leukemia = tested on: MOLT-4 leukemia
OVCAR-3 ovarian = tested on: OVCAR-3 ovarian
SF-295 CNS = tested on: SF-295 CNS
OVCAR-4 ovarian = tested on: OVCAR-4 ovarian
ACHN renal = tested on: ACHN renal
EKVX NSCLC = tested on: EKVX NSCLC
HCT-116 colon = tested on: HCT-116 colon
MALME-3M melanoma = tested on: MALME-3M melanoma
HCT-15 colon = tested on: HCT-15 colon
OVCAR-8 ovarian = tested on: OVCAR-8 ovarian
A498 renal = tested on: A498 renal
UACC-257 melanoma = tested on: UACC-257 melanoma
RXF 393 renal = tested on: RXF 393 renal
NCI-H226 lung = tested on: NCI-H226 lung
LOX IMVI melanoma = tested on: LOX IMVI melanoma
K-562 leukemia = tested on: K-562 leukemia
SF-539 CNS = tested on: SF-539 CNS
SK-OV-3 ovarian = tested on: SK-OV-3 ovarian
KM12 colon = tested on: KM12 colon
A549 NSCLC = tested on: A549 NSCLC
HS 578T breast = tested on: HS 578T breast
IGROV1 ovarian = tested on: IGROV1 ovarian
UACC-62 melanoma = tested on: UACC-62 melanoma
MCF7 breast = tested on: MCF7 breast
SR leukemia = tested on: SR leukemia
HL-60(TB) leukemia = tested on: HL-60(TB) leukemia
OVCAR-5 ovarian = tested on: OVCAR-5 ovarian
HT29 colon = tested on: HT29 colon
SNB-75 CNS = tested on: SNB-75 CNS
SK-MEL-28 melanoma = tested on: SK-MEL-28 melanoma
HOP-92 NSCLC = tested on: HOP-92 NSCLC
CAKI-1 renal = tested on: CAKI-1 renal
SW-620 colon = tested on: SW-620 colon
HOP-62 NSCLC = tested on: HOP-62 NSCLC
SK-MEL-5 melanoma = tested on: SK-MEL-5 melanoma
HCC-2998 colon = tested on: HCC-2998 colon
PC-3 prostate = tested on: PC-3 prostate
MDA-MB-231 breast = tested on: MDA-MB-231 breast
NCI-H23 lung = tested on: NCI-H23 lung
SN12C renal = tested on: SN12C renal
MDA-N = tested on: MDA-N
SK-MEL-2 melanoma = tested on: SK-MEL-2 melanoma
NCI-H460 lung = tested on: NCI-H460 lung
SNB-19 CNS = tested on: SNB-19 CNS
MDA-MB-435 = tested on: MDA-MB-435
M14 melanoma = tested on: M14 melanoma
SF-268 CNS = tested on: SF-268 CNS
DU-145 prostate = tested on: DU-145 prostate
NCI-H522 lung = tested on: NCI-H522 lung
T-47D breast = tested on: T-47D breast
RPMI-8226 leukemia = tested on: RPMI-8226 leukemia

In the case of `O=C1Nc2c(Cl)cc(Cl)cc2C1=O`, the TGI (786-0 renal) is reported as 39.5 µM, the TGI (UO-31 renal) is reported as 44.9 µM and the TGI (BT-549 breast) is reported as 35.1 µM. The TGI (TK-10 renal) was > 100 µM, the TGI (NCI/ADR-RES ovarian) was 54.5 µM and the TGI (CCRF-CEM leukemia) was 72.9 µM. For the same compound, the TGI (U251 CNS) was 55.2 µM, the TGI (COLO 205 colon) was 50.8 µM and the TGI (MOLT-4 leukemia) was 48.6 µM. For the same compound, the TGI (OVCAR-3 ovarian) was 52.5 µM, the TGI (SF-295 CNS) was 31.8 µM and the TGI (OVCAR-4 ovarian) was 33.1 µM. For the same compound, the TGI (ACHN renal) was > 100 µM, the TGI (EKVX NSCLC) was 29.6 µM and the TGI (HCT-116 colon) was 40.5 µM. The TGI (MALME-3M melanoma) was 7.88 µM, the TGI (HCT-15 colon) was 47.5 µM and the TGI (OVCAR-8 ovarian) was 55.8 µM. It also gave a TGI (A498 renal) of 53.4 µM, a TGI (UACC-257 melanoma) of 35.1 µM and a TGI (RXF 393 renal) of 28.2 µM. For the same compound, the TGI (NCI-H226 lung) was 46.6 µM, the TGI (LOX IMVI melanoma) was 35.5 µM and the TGI (K-562 leukemia) was > 100 µM. The TGI (SF-539 CNS) was 34.4 µM, the TGI (SK-OV-3 ovarian) was > 100 µM and the TGI (KM12 colon) was > 100 µM. For the same compound, the TGI (A549 NSCLC) was 35.9 µM, the TGI (HS 578T breast) was 37.6 µM and the TGI (IGROV1 ovarian) was 50.3 µM. It also gave a TGI (UACC-62 melanoma) of 30.2 µM, a TGI (MCF7 breast) of 39.6 µM and a TGI (SR leukemia) of 39.4 µM. For the same compound, the TGI (HL-60(TB) leukemia) was 26.7 µM, the TGI (OVCAR-5 ovarian) was 40.7 µM and the TGI (HT29 colon) was > 100 µM. The TGI (SNB-75 CNS) was 28.6 µM, the TGI (SK-MEL-28 melanoma) was 35.4 µM and the TGI (HOP-92 NSCLC) was 57.5 µM. For the same compound, the TGI (CAKI-1 renal) was 35.4 µM, the TGI (SW-620 colon) was 41.5 µM and the TGI (HOP-62 NSCLC) was 40.4 µM. For the same compound, the TGI (SK-MEL-5 melanoma) was 28.8 µM, the TGI (HCC-2998 colon) was 83.4 µM and the TGI (PC-3 prostate) was > 100 µM. It also gave a TGI (MDA-MB-231 breast) of 45.9 µM, a TGI (NCI-H23 lung) of 48.7 µM and a TGI (SN12C renal) of 32.2 µM. For the same compound, the TGI (MDA-N) was 21.8 µM, the TGI (SK-MEL-2 melanoma) was 29.7 µM and the TGI (NCI-H460 lung) was 47.6 µM. The TGI (SNB-19 CNS) was > 100 µM, the TGI (MDA-MB-435) was 15.2 µM and the TGI (M14 melanoma) was 38.6 µM.
In the case of `O=C1OCC2=C1C(c1ccc3c(c1)OCO3)c1cc3c(cc1O2)OCO3` (centres undefined), the TGI (SF-268 CNS) is reported as > 100 µM, the TGI (786-0 renal) is reported as > 30.1 µM and the TGI (UO-31 renal) is reported as > 85.6 µM. For the same compound, the TGI (DU-145 prostate) was > 58.8 µM, the TGI (TK-10 renal) was > 100 µM and the TGI (NCI/ADR-RES ovarian) was 2.03 µM. For the same compound, the TGI (CCRF-CEM leukemia) was > 30.7 µM, the TGI (U251 CNS) was > 100 µM and the TGI (COLO 205 colon) was 15.2 µM. For the same compound, the TGI (MOLT-4 leukemia) was > 49.1 µM, the TGI (OVCAR-3 ovarian) was > 21.3 µM and the TGI (SF-295 CNS) was > 72.2 µM. The TGI (OVCAR-4 ovarian) was > 100 µM, the TGI (ACHN renal) was > 100 µM and the TGI (EKVX NSCLC) was > 100 µM. For the same compound, the TGI (HCT-116 colon) was 41.5 µM, the TGI (MALME-3M melanoma) was > 100 µM and the TGI (HCT-15 colon) was > 79.1 µM. The TGI (OVCAR-8 ovarian) was 68.1 µM, the TGI (A498 renal) was 42.8 µM and the TGI (UACC-257 melanoma) was > 100 µM. For the same compound, the TGI (RXF 393 renal) was 7.6 µM, the TGI (NCI-H226 lung) was > 100 µM and the TGI (LOX IMVI melanoma) was > 100 µM. The TGI (NCI-H522 lung) was 0.533 µM, the TGI (K-562 leukemia) was 28.8 µM and the TGI (SF-539 CNS) was 2.81 µM. The TGI (SK-OV-3 ovarian) was > 85.2 µM, the TGI (KM12 colon) was > 100 µM and the TGI (A549 NSCLC) was > 100 µM. The TGI (HS 578T breast) was 20.8 µM, the TGI (IGROV1 ovarian) was > 100 µM and the TGI (UACC-62 melanoma) was > 72.6 µM. For the same compound, the TGI (MCF7 breast) was > 100 µM, the TGI (SR leukemia) was 5.19 µM and the TGI (HL-60(TB) leukemia) was 0.365 µM. For the same compound, the TGI (OVCAR-5 ovarian) was > 100 µM, the TGI (HT29 colon) was 3.54 µM and the TGI (SNB-75 CNS) was 11.9 µM. For the same compound, the TGI (T-47D breast) was > 100 µM, the TGI (SK-MEL-28 melanoma) was > 59.1 µM and the TGI (HOP-92 NSCLC) was > 100 µM. For the same compound, the TGI (CAKI-1 renal) was > 100 µM, the TGI (SW-620 colon) was > 100 µM and the TGI (HOP-62 NSCLC) was > 100 µM. For the same compound, the TGI (SK-MEL-5 melanoma) was > 100 µM, the TGI (RPMI-8226 leukemia) was 10.5 µM and the TGI (HCC-2998 colon) was 59.3 µM. For the same compound, the TGI (PC-3 prostate) was > 63.7 µM, the TGI (MDA-MB-231 breast) was > 100 µM and the TGI (NCI-H23 lung) was > 100 µM. The TGI (SN12C renal) was > 100 µM, the TGI (MDA-N) was 0.368 µM and the TGI (SK-MEL-2 melanoma) was > 100 µM. For the same compound, the TGI (NCI-H460 lung) was > 100 µM, the TGI (SNB-19 CNS) was > 27.2 µM and the TGI (MDA-MB-435) was 0.323 µM. The TGI (M14 melanoma) was 11.4 µM.
With `CCCCCCN1CCc2c(C)c(C#N)c3nc4ccccc4n3c21` the TGI (SF-268 CNS) was > 100 µM, the TGI (786-0 renal) was > 100 µM and the TGI (UO-31 renal) was > 100 µM. For the same compound, the TGI (DU-145 prostate) was > 100 µM, the TGI (BT-549 breast) was > 100 µM and the TGI (TK-10 renal) was > 100 µM. For the same compound, the TGI (NCI/ADR-RES ovarian) was > 100 µM, the TGI (U251 CNS) was > 100 µM and the TGI (COLO 205 colon) was > 100 µM. The TGI (OVCAR-3 ovarian) was > 100 µM, the TGI (SF-295 CNS) was > 100 µM and the TGI (OVCAR-4 ovarian) was > 100 µM. For the same compound, the TGI (ACHN renal) was > 100 µM, the TGI (HCT-116 colon) was > 100 µM and the TGI (MALME-3M melanoma) was > 100 µM. For the same compound, the TGI (HCT-15 colon) was > 100 µM, the TGI (OVCAR-8 ovarian) was > 100 µM and the TGI (A498 renal) was > 100 µM. The TGI (UACC-257 melanoma) was > 100 µM, the TGI (RXF 393 renal) was > 100 µM and the TGI (NCI-H226 lung) was > 100 µM. For the same compound, the TGI (LOX IMVI melanoma) was > 100 µM, the TGI (NCI-H522 lung) was > 100 µM and the TGI (K-562 leukemia) was > 100 µM. The TGI (SF-539 CNS) was > 100 µM, the TGI (SK-OV-3 ovarian) was > 100 µM and the TGI (A549 NSCLC) was > 100 µM. The TGI (HS 578T breast) was 75.6 µM, the TGI (IGROV1 ovarian) was > 100 µM and the TGI (UACC-62 melanoma) was > 100 µM. For the same compound, the TGI (MCF7 breast) was 41.5 µM, the TGI (SR leukemia) was > 100 µM and the TGI (HL-60(TB) leukemia) was > 100 µM. For the same compound, the TGI (OVCAR-5 ovarian) was > 100 µM, the TGI (HT29 colon) was > 100 µM and the TGI (SNB-75 CNS) was > 100 µM. The TGI (SK-MEL-28 melanoma) was > 100 µM, the TGI (HOP-92 NSCLC) was > 100 µM and the TGI (SW-620 colon) was > 100 µM. For the same compound, the TGI (HOP-62 NSCLC) was > 100 µM, the TGI (SK-MEL-5 melanoma) was > 100 µM and the TGI (HCC-2998 colon) was > 100 µM. The TGI (PC-3 prostate) was > 100 µM, the TGI (MDA-MB-231 breast) was > 100 µM and the TGI (NCI-H23 lung) was > 100 µM. The TGI (SN12C renal) was > 100 µM, the TGI (MDA-N) was > 100 µM and the TGI (SK-MEL-2 melanoma) was > 100 µM. For the same compound, the TGI (NCI-H460 lung) was > 100 µM, the TGI (SNB-19 CNS) was > 100 µM and the TGI (MDA-MB-435) was 93.8 µM. For the same compound, the TGI (M14 melanoma) was > 100 µM.
